According to a melting point compilation (Tetko et al.; mined from patent text by program, amines drawn as free bases though some values may be those of a salt):

SMILES	melting point [°C]
Cc1nn(-c2ccccc2)nc1C(=O)N1CCC2(CC1)CSC1=C(O2)c2ccccc2C(=O)C1=O	275 to 280
O=C(Nc1csc(Br)n1)C(Cl)(Cl)Cl	77 to 80
FC(F)C(F)(F)Sc1nc2c3ccccc3c3ccccc3c2[nH]1	230 to 231
COC1C(OC(=O)N2CCOCC2)CCC2(CO2)C1C1(C)OC1CCOCc1ccccc1 (stereo unspecified)	96 to 97
CN1N=C(C2CCCCC2)CC1=O	170 to 172
O=C(O)c1ccccc1C(=O)N1CC2CCC(C1)O2	149 to 150
O=C(O)/C=C/c1oc(-c2ccccc2)nc1-c1ccc(Cl)cc1	255 to 257
O=C1CCCCCCCCC=CCCCCCCCCC1O (stereo unspecified)	66 to 67
NC1=NN(c2ccc(Cl)cn2)C(c2ccccc2)C1 (stereo unspecified)	142 to 147
COc1ccc(-c2c(CO)[nH]c3cc(OC)c(OC)cc23)cc1	169 to 170
CNC(=O)Oc1cc(C)c(NS(C)(=O)=O)c(C)c1	178 to 185
COc1cc(Cc2cnc(N)nc2N)c2c(c1OC)OC(C1CC1)C=C2 (stereo unspecified)	229
Cc1nc(-c2cn(Cc3ccc(F)cc3)nn2)sc1C(=O)NCc1ccccc1	114 to 115
CSc1ccc(C2=C(c3cccs3)C(=O)C(C)(C)O2)cc1	113 to 114
O=[N+]([O-])c1ccc(Nc2ccccc2)s1	186
CC(C)(C)OC(=O)NCCN(CCC12CC3CC(CC(C3)C1)C2)C(=O)NCCCc1ccncc1	158 to 160
C#Cc1ncn2c1[C@@H]1CCCN1C(=O)c1c(Cl)cccc1-2	324 to 325
Cc1ccc(-c2cccc(/C=C/C(=O)Nc3ccc(-c4cccnc4)cc3)c2)cc1	213 to 214
CC(C)(C)OC(=O)NCCCCCCCCNC(=O)OC(C)(C)C	96 to 97
NCCc1c[nH]c(=O)[nH]c1=O	214 to 220
COc1cc([N+](=O)[O-])c2ncccc2c1OCc1ccc(Cl)cc1	115 to 116
COC(=O)C1=C(C(F)F)NC(C)=C(C(=O)OC2CCCC2)C1c1cccc([N+](=O)[O-])c1C (stereo unspecified)	154 to 156
Oc1cncc2sccc12	206
Nc1ccc(C#CC2CC2)c(F)c1	82 to 86
Fc1ccc(Cn2c(NC3CCN(CCNC(=S)NCc4cccnc4)CC3)nc3ccccc32)cc1	147
Cc1cccc(C(=O)c2[nH]c3cc(Cl)ccc3c2CC(=O)O)n1	230 to 231

SMILES	melting point [°C]
COc1ccc(C(=O)c2ccc(OCc3coc(-c4ccccc4)n3)cc2)c(OC(C)(C)C(=O)O)c1	165 to 167
Cc1nc2c3c(c(CO)cc2n1C)CCC(c1ccccc1)N3 (stereo unspecified)	253 to 254
CC(=O)N1CCc2ccc(S(=O)(=O)n3c(CCCC(=O)O)cc4cc(Cl)ccc43)cc2C1	95 to 97
CC(C)n1nc(-c2c(-c3ccccc3)nn3ccc(N4CCN(C(=O)N(C)C)CC4)cc23)ccc1=O	160 to 161
CCNC1(c2ccccc2Cl)C(=O)N(Cc2ccc(C(=O)NC(C)(C)C)cc2)c2ccc(Cl)cc21 (stereo unspecified)	190 to 195
COc1nc(C(F)(F)F)c(F)c(=O)n1-c1cc(C(=O)O)c(Cl)cc1F	199 to 201
CC(=O)OC1CC(n2cc(C=CBr)c(=O)[nH]c2=O)OC1CC#N (stereo unspecified)	96
O=C(O)C1=Cc2cc(Cl)c(Oc3ccc(OC(F)(F)F)cc3)cc2OC1C(F)(F)F (stereo unspecified)	198 to 199
CCOC(=O)c1c(C(F)(F)F)nn(-c2c(Cl)cc(Cl)cc2Cl)c1C	95 to 96
O=[N+]([O-])c1cc(Br)cc2[nH]c(CCl)nc12	148 to 150
CC(=O)NCc1cccc(Nc2nccc(-c3sc(-c4cccs4)nc3C)n2)c1	223 to 225
C[C@H](Cn1ncnn1)n1nnc2cc3c(=O)n(C4CC4)nnc3cc2c1=O	190 to 192
Nc1nc(-c2cc(Cl)ccc2Cl)nc(N2CCN(CCO)CC2)n1	185 to 187
Nc1ccc(SCCn2cnnc2)cc1	160 to 162
NC(=O)c1[nH]cnc1OC(=O)C=Cc1ccccc1	170 to 175
O=C(O)Cc1csc2cc(-c3ccccc3)cn12	114 to 116
Cc1cc(Cl)ccc1NC(=O)c1cccc(S(=O)(=O)N(C)c2ccc(Br)cc2)c1	163 to 164
CCCOc1cccc2c1OCN(CCc1ccccc1)C2	84
Cc1noc2cc3c(cc12)C1(CO3)C(=O)N(Cc2ccc(-c3ccno3)cc2)c2ccccc21 (stereo unspecified)	192 to 194
O=C(Nc1cccnn1)N1CCN(c2nccc(-c3ccccc3F)n2)CC1	228 to 229
CSc1nc(=O)cc(C)n1C1CCCCC1	184 to 186
COC(=O)c1cc(-c2ccc(C)c(C)c2)n(Cc2ccc(F)cc2)n1	93
COc1cccc([C@]23CCN(C)C[C@@H]2CCC2(C3)OCCO2)c1 (relative stereo)	124 to 126
CCOC(=O)c1c(CCl)nc2cc(OC)c(OC)cc2c1-c1ccc(OC)c(OC)c1	147 to 148
COCCc1nc2c(N)nc3ccccc3c2n1CCOCCN(C)C(=O)Nc1ccccc1	185 to 186
CN1CCN(c2cc3c(cc2F)c(=O)n(O)c(=O)n3-c2cccc(F)c2)CC1	176 to 178

SMILES	melting point [°C]
COC(=O)c1c(CC#N)ncn1C1OC(COC(C)=O)C(OC(C)=O)C1OC(C)=O (stereo unspecified)	92 to 93
CN1CCN(c2cc3c(F)cccc3c(=O)[nH]2)CC1	238 to 239
CCOC(=O)C1=C(C)NC(C)=C(C(=O)OCC)C1c1cccc2nonc12	153 to 155
CCOCc1nc2c(c3cc(OCc4ccccc4)ccc3n3nnnc23)n1CC(C)C	184
Cn1cc(Oc2ccccc2)c(=O)c(-c2cccc(C(F)(F)F)c2)c1	144 to 145
CC(=NOCCOc1ccc(C[C@H](Oc2ccc(C(C)(C)C)cc2)C(=O)O)cc1)c1ccc(-c2ccccn2)cc1	148 to 150
CCn1c(=O)c(-c2cccs2)cc2cnc(Nc3ccccc3)nc21	223 to 225
Cc1cccc(N2CCN(C(=O)CCCCCCC(=O)NO)CC2C)c1 (stereo unspecified)	75 to 76
O=[N+]([O-])c1ccc(O)c(C=NCCC(F)=C(F)F)c1	96 to 98
COc1cc(-n2ccc(C)n2)ccc1C(=O)N1Cc2cccn2Cc2ccccc21	92 to 94
N#Cc1c(N2CCc3ccccc3CC2)nc(NCCCOc2ccccc2)[nH]c1=O	175 to 180
CCn1c2ccccc2c2c3c(ccc21)c(C=O)cn3C	144 to 146
Cc1ccc(C(=O)C=Cc2ccc[nH]2)cc1	158 to 160
CN1CCC(c2c[nH]c3ccc(NC(=O)c4ccccn4)nc23)CC1	221 to 223
COc1cc(N(C)C)nc(NC(=O)NS(=O)(=O)c2ccccc2Cl)n1	224 to 226
COC(=O)CCc1cc2cc(Cl)ccc2n1S(=O)(=O)c1cc(C)cc(C)c1	146 to 150
CCCc1nn(-c2ccc(C(F)(F)F)cn2)cc1C(=O)OCC	102 to 103
COc1cn(-c2cc3c(cc2F)OC(F)(F)O3)nc(-c2ccnn2-c2ccccc2)c1=O	200 to 202
COc1ccc(OS(=O)(=O)c2ccc(N3CCN(C)C3=O)cc2)cc1	183 to 185
O=S(=O)(c1ccc(Cl)cc1)N1CCC2(C=Cc3ccccc32)CC1	179 to 181
CN1CCN(C)CC(OC(=O)c2n[nH]c3ccccc23)C1	184 to 185
CC(C)Cn1c(CNC(=O)OC(C)(C)C)c(-c2cccc(F)c2)c2cc(C(=O)O)ccc2c1=O	206 to 207
CC(C(=O)O)c1ccc2noc(-c3ccccc3)c2c1 (stereo unspecified)	145 to 149
O=c1n(CCN2CCN(c3ccc4cc[nH]c4c3)CC2)c2ccccc2n1C1=CCCCC1	171 to 173
C[C@@](O)(C(=O)Nc1ccc(S(=O)(=O)c2ccccc2)cc1F)C(F)(F)F	121 to 122
CCCCCCCCCCCCCCC(=O)C(=O)N[C@@H](CCCC)C(=O)NCC(=O)OCC	63 to 65

SMILES	melting point [°C]
CCOC(=O)c1cn(C)c2cnc3c(F)c(Cl)c(F)cc3c2c1=O	293
O=C(Nc1ccc(C(F)(F)F)cc1)N[C@@H](Cc1ccccc1)C(=O)OCc1ccccc1	155 to 157
CS(=O)(=O)Oc1cc(C=CC(=O)c2ccccc2)cc([N+](=O)[O-])c1OS(C)(=O)=O	181 to 184
COCCCNc1nc(Cl)cc(Cl)n1	48
CCOP(=O)(COCC(CO)On1cnc2c(=O)[nH]c(N)nc21)OCC (stereo unspecified)	238 to 240
Cc1cc(C(=O)c2[nH]c3cc(Cl)ccc3c2N)ccc1Cl	142 to 143
COC(=C(C#N)C(=O)C(C)(C)C)c1ccc(Cl)cc1[N+](=O)[O-]	130 to 131
CC(=CC(C)C)c1ccccc1NC(=O)c1cn(C)nc1C(F)(F)F	66 to 74
c1cc2cc(N3CCOCC3)ccc2s1	127 to 132
O=C(CCc1ccccc1)N[C@H](Cc1ccc(C(F)(F)F)cc1)[C@@H](O)c1ccc(F)cc1F (racemic)	126 to 127
CC(C)=CCN1c2ccccc2NC(=O)C1C (racemic)	92 to 93
CC(C)C/C(=C\F)CN1C(=O)c2ccccc2C1=O	57 to 60
CC1(CNC(=O)C(F)(F)F)CN(c2cc3c(cc2F)c(=O)c(C(=O)O)cn3C2CC2)C1	265 to 272
COC(=O)NC1=NC(c2cccc3ccccc23)CN1 (stereo unspecified)	208 to 209
C=CCOc1ccc(C=CC(=O)Oc2ccc(OC(=O)C(=C)C)cc2)cc1	118
CCN(CC)C(=O)CCc1nc(-c2ccccn2)nc2ccccc12	130
COC(=O)c1nc2c(CBr)cccc2n1COCC[Si](C)(C)C	85 to 86
COc1cc(Nc2nccc(-c3ccc(N4CCN(CCN)CC4)nc3)n2)cc(OC)c1OC	88 to 89
O=C(O)C1CCCCCCCSC[C@@H](C(=O)O)NC1=O (stereo partly specified)	167 to 170
CCc1nn(CCO)c(CC)c1Cc1c(F)cccc1F	70 to 71
CCSc1cnc(Oc2ccc(Cl)c(Cl)c2)cc1C#N	68 to 69
O=[N+]([O-])c1cc2nc(O)c(O)nc2c2[nH]ncc12	> 300
Cc1nc(C)nc(-c2cccc(-c3ccccc3C)n2)n1	86.8
